Some test systems named below: A498; RPMI-8226; HCT-116; SF-539; SF-268; SK-MEL-2; KM12; UACC-62; ACHN; HCC 2998; UACC-257; MOLT-4; HOP-62; LOX IMVI; IGROV-1; OVCAR-5; MDA-N; MDA-MB-435; SR.
Holding throughout (assay): DTP human tumour cell line panel, 48 h

The values below come from ChEMBL document CHEMBL1201862, “PubChem BioAssay data set” (2004).

Structures are written as SMILES.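 Where inhibition never reached the appropriate level, the endpoint shown equals the highest concentration tested. Otherwise, values were interpolated linearly from a five-concentration, 48-hour dose response in 96-well plates. At the GI50, growth is halved.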 Calls of active or inactive are those of the source. No stated cut-off is given here; in the data, active = GI50 up to about 1.1 µM and inactive = higher.

What is called GI50 is the concentration that inhibits growth by half. For the compound `C=C(C=O)CCCC(C)[C@@H]1CCC23CC12CCC1[C@@]2(C)CCC(OC(C)=O)C(C)(C)C2CC(OC2OC(COC(C)=O)C(O)C(O)C2O)[C@]13C` (stereo not given in full), the GI50 in the experiment with A498 was 6.85 µM (inactive); in the experiment with RPMI-8226, 0.859 µM (active); with HCT-116, 0.809 µM (active); in the experiment with SF-539, 5.7 µM (inactive); in the experiment on SF-268, 5.43 µM (inactive); with SK-MEL-2, 7.4 µM (inactive). The GI50 in the experiment on KM12 was 3.39 µM (inactive); in the experiment on UACC-62, 1.08 µM (active); with ACHN, 4.51 µM (inactive); with HCC 2998 it was 7.53 µM (inactive); in the experiment on UACC-257, 5.7 µM (inactive); in the experiment on MOLT-4, 0.861 µM (active). For the same compound, the GI50 in the experiment on HOP-62 is 7.87 µM (inactive); in the experiment with LOX IMVI it was 0.807 µM (active); in the experiment on IGROV-1, 2.15 µM (inactive); in the experiment on OVCAR-5 it was 5.98 µM (inactive).
On to `Cn1c(=O)c2[nH]c(Nc3cccc(Cl)c3)nc2n(C)c1=O`, for which the GI50 with MDA-N is 4.21 µM (inactive); in the experiment with RPMI-8226 it was 2.49 µM (inactive); in the experiment with SF-268, 6.98 µM (inactive); in the experiment on KM12, 4.78 µM (inactive); in the experiment with UACC-62, 3.17 µM (inactive); with HCC 2998, 4.27 µM (inactive). In addition, the GI50 with UACC-257 is 4.18 µM (inactive); in the experiment with MOLT-4, 3.13 µM (inactive); in the experiment on HOP-62, 4.67 µM (inactive); with LOX IMVI, 7.13 µM (inactive); in the experiment on IGROV-1, 3.8 µM (inactive); with MDA-MB-435, 3.82 µM (inactive).
Regarding `COc1ccc2c3c([nH]c2c1[N+](=O)[O-])C(C)N(Cc1ccc([N+](=O)[O-])cc1)CC3` (stereo not given), the GI50 with A498 was 14.8 µM (inactive); in the experiment with RPMI-8226 it was 4.12 µM (inactive); in the experiment with SF-539 it was > 100 µM (inactive); in the experiment on SF-268 it was 2.48 µM (inactive); with SK-MEL-2, 14.5 µM (inactive); in the experiment with SR, 5.5 µM (inactive). For the same compound, the GI50 in the experiment on KM12 was 14.2 µM (inactive); in the experiment with UACC-62 it was 15.8 µM (inactive); with ACHN, 18.1 µM (inactive); in the experiment with HCC 2998 it was 17.2 µM (inactive); in the experiment with UACC-257, 12.9 µM (inactive); in the experiment with MOLT-4, 2.99 µM (inactive). The GI50 in the experiment with HOP-62 was > 10 µM (inactive); in the experiment on LOX IMVI, 4.74 µM (inactive); in the experiment on IGROV-1, 39.8 µM (inactive); with OVCAR-5 it was 31.6 µM (inactive).
With `O=C(Cc1ccccc1)NNc1nc(NNC(=O)c2ccncc2)nc(Nc2cccc(Cl)c2)n1`, the GI50 with MDA-N, with RPMI-8226, with SF-539, in the experiment with SF-268, in the experiment on SR and with KM12 was > 10 µM (inactive) in each case. Also, the GI50 with UACC-62, with HCC 2998, with UACC-257, in the experiment on MOLT-4, in the experiment on HOP-62 and in the experiment with LOX IMVI was > 10 µM (inactive) each time. In addition, the GI50 in the experiment on IGROV-1 is > 10 µM (inactive).
Consider `CC1=C(c2ccccc2)CON(c2ccccc2)C1`, for which the GI50 was 28.4 µM (inactive) in the experiment with RPMI-8226; 24.7 µM (inactive) in the experiment with HCT-116; 40.6 µM (inactive) with SF-539; 39.9 µM (inactive) in the experiment with SF-268; 26.6 µM (inactive) in the experiment with SK-MEL-2; 31.3 µM (inactive) with SR. The GI50 is 22.7 µM (inactive) in the experiment with KM12; 38.5 µM (inactive) in the experiment on UACC-62; 30.2 µM (inactive) in the experiment with ACHN; 67.5 µM (inactive) in the experiment on HCC 2998; 40.8 µM (inactive) in the experiment with UACC-257; 29.6 µM (inactive) in the experiment with MOLT-4. Further, the GI50 was 66.2 µM (inactive) in the experiment with HOP-62, 30.8 µM (inactive) with LOX IMVI, 43.3 µM (inactive) in the experiment on IGROV-1 and 32.9 µM (inactive) with OVCAR-5.
In the case of `O=[N+]([O-])c1ccc(CSC2=C(c3ccc(Cl)cc3)S/C(=C3\SC(SCc4ccc([N+](=O)[O-])cc4)=C(c4ccc(Cl)cc4)S3)S2)cc1`, the GI50 with A498, with MDA-N, in the experiment with HCT-116, in the experiment with SF-539, with SF-268 and in the experiment on SK-MEL-2 was > 100 µM (inactive) throughout. The GI50 in the experiment with KM12, in the experiment on UACC-62, in the experiment with ACHN, with HCC 2998, in the experiment with UACC-257 and in the experiment on MOLT-4 was > 100 µM (inactive) in each case. The GI50 with HOP-62, in the experiment on LOX IMVI, in the experiment on IGROV-1, in the experiment on MDA-MB-435 and with OVCAR-5 was > 100 µM (inactive) in each case.
Take `COC(=O)c1cc(C#Cc2cc(OC)ccc2OC)ccc1OC`: the GI50 with MDA-N was 30.3 µM (inactive); in the experiment with RPMI-8226 it was 13.9 µM (inactive); in the experiment on SF-268 it was 75.7 µM (inactive); in the experiment with SK-MEL-2, 43.5 µM (inactive); with SR it was 26.8 µM (inactive); in the experiment with KM12 it was 43.9 µM (inactive). For the same compound, the GI50 is 42.7 µM (inactive) in the experiment with ACHN; > 100 µM (inactive) in the experiment on HCC 2998; 37.2 µM (inactive) with UACC-257; 19.3 µM (inactive) in the experiment on MOLT-4; 32.1 µM (inactive) in the experiment on LOX IMVI; 53.2 µM (inactive) with IGROV-1. The results for the GI50 in the experiment on MDA-MB-435 and in the experiment on OVCAR-5 were 41.3 µM (inactive) and > 100 µM (inactive), respectively.
Regarding `COc1ccc(-c2c(C#N)c(-c3ccc(C)cc3)n(NS(=O)(=O)c3ccccc3)c(=O)c2C#N)cc1`, the GI50 was 59 µM (inactive) with A498; 70.8 µM (inactive) in the experiment with MDA-N; 13.3 µM (inactive) with RPMI-8226; 42.6 µM (inactive) with HCT-116; 36.6 µM (inactive) in the experiment with SF-539; 80.4 µM (inactive) with SF-268. Also, the GI50 with SK-MEL-2 is 50.8 µM (inactive); in the experiment on KM12, 46.3 µM (inactive); in the experiment on UACC-62, 38.5 µM (inactive); in the experiment with ACHN, 45 µM (inactive); in the experiment on HCC 2998, 45.8 µM (inactive); in the experiment on UACC-257, > 100 µM (inactive). In addition, the GI50 with MOLT-4 was 19 µM (inactive); in the experiment with HOP-62 it was 51.3 µM (inactive); in the experiment with LOX IMVI, 30.3 µM (inactive); in the experiment with IGROV-1 it was 35.5 µM (inactive); with MDA-MB-435, 73.6 µM (inactive); in the experiment on OVCAR-5, > 100 µM (inactive).
`O=C1c2ccccc2-c2nc(-c3cccc([N+](=O)[O-])c3)nnc21`: the GI50 is 2.54 µM (inactive) with MDA-N; 2.94 µM (inactive) with RPMI-8226; 23.1 µM (inactive) in the experiment with HCT-116; 22.6 µM (inactive) in the experiment with SF-539; 43.1 µM (inactive) in the experiment with SF-268; 18.9 µM (inactive) in the experiment on SK-MEL-2. Further, the GI50 with SR was 1.11 µM (active); in the experiment on KM12, 8 µM (inactive); with UACC-62, 9.12 µM (inactive); in the experiment with ACHN, 3.98 µM (inactive); in the experiment on UACC-257, 3.24 µM (inactive); in the experiment with MOLT-4, 9.73 µM (inactive). Also, the GI50 in the experiment on IGROV-1 was 28.8 µM (inactive); in the experiment on MDA-MB-435 it was 1.97 µM (inactive); in the experiment on OVCAR-5 it was 20.1 µM (inactive).
Regarding `C[n+]1c(-c2ccc(/C=N/NC(=O)C(=O)N/N=C/c3ccc(-c4cn5ccccc5[n+]4C)cc3)cc2)cn2ccccc21`, the GI50 with A498, in the experiment with MDA-N, with RPMI-8226, in the experiment with SF-539, with SK-MEL-2 and in the experiment on KM12 was > 100 µM (inactive) in each case. The GI50 in the experiment on UACC-62, in the experiment on ACHN, with HCC 2998, in the experiment with UACC-257, with MOLT-4 and in the experiment on HOP-62 was > 100 µM (inactive) throughout. For the same compound, the GI50 with IGROV-1, in the experiment on MDA-MB-435 and in the experiment on OVCAR-5 was > 100 µM (inactive) in each case.
In the case of `CCn1c(-c2c(Cl)cc(O)cc2Cl)cc2c(Cl)cc(O)cc21`, the GI50 with A498 is 13.9 µM (inactive); in the experiment with RPMI-8226, 5.81 µM (inactive); in the experiment on HCT-116, 4.26 µM (inactive); in the experiment on SF-539, 3.24 µM (inactive); in the experiment with SF-268, 2.88 µM (inactive); with SK-MEL-2, 4.02 µM (inactive). Besides, the GI50 with SR was 5.45 µM (inactive); in the experiment on KM12 it was 5.07 µM (inactive); in the experiment on UACC-62, 8.49 µM (inactive); in the experiment with ACHN it was 4.66 µM (inactive); in the experiment with UACC-257, 11.7 µM (inactive); with MOLT-4 it was 8.87 µM (inactive). Besides, the GI50 with HOP-62 is 6.25 µM (inactive); in the experiment with LOX IMVI, 6.38 µM (inactive); in the experiment with IGROV-1 it was 3.21 µM (inactive); with MDA-MB-435, 1.67 µM (inactive); in the experiment with OVCAR-5, 8.97 µM (inactive).
In the case of `COc1cc(OC)c2c(O)c(S(=O)(=O)c3ccc(C)cc3)c(=O)oc2c1`, the GI50 is > 100 µM (inactive) in the experiment on A498; 76.7 µM (inactive) in the experiment with RPMI-8226; 77.8 µM (inactive) in the experiment on HCT-116; > 100 µM (inactive) with SF-539; > 100 µM (inactive) in the experiment with SF-268; > 100 µM (inactive) in the experiment on SK-MEL-2. The GI50 in the experiment on SR is > 100 µM (inactive); in the experiment on KM12, 92.5 µM (inactive); with UACC-62, > 100 µM (inactive); with ACHN, > 100 µM (inactive); in the experiment on HCC 2998, > 100 µM (inactive); with UACC-257, > 100 µM (inactive). The GI50 in the experiment with MOLT-4, in the experiment on IGROV-1, in the experiment on MDA-MB-435 and in the experiment on OVCAR-5 was > 100 µM (inactive) throughout.
